Measured values from patent US12590954B2, “Neural stem cell-induced differential medium and induction differentiation method” (IREGENE THERAPEUTICS, CO., LTD., priority 2020, dated 2026).
“Also recorded” adds a separate entry of the source.

What was measured:
neural stem cells [1] = assay: Directed differentiation of induced neural stem cells into neurons (immunofluorescence); assay type: cell-based, human
Procedure: The neural stem cells obtained by the LY inducing method in Example 2 were subjected to directed differentiation in NouvNeu001 basal medium. For neuronal differentiation, use 50 μg/mL polylysine (SIGMA ALDRICH, Cat. No.: P6407) to coat a 6-well culture plate, and place the plate in a 37° C. incubator and incubate for more than 3 hours until cells are seeded.
The neural stem cells obtained in example 2 were seeded at a density of 1×10^5 the ratio per flask was inoculated in T25 flasks, and 3 μM CHIR99021 (Selleck, Cat. No.: S2924), 10 μM SU5402 (Tocris, Cat. No.: 3300/1), 10 μM DAPT (Selleck, Cat. No.: 52215) were added to NouvNeu001 basal medium. Fresh medium was replaced every 3 days until day 21. The above cultures were incubated at 37° C. with 5% CO2.
The neural stem cells obtained in example 2 were seeded at a density of 1×10^5 the ratio per flask was inoculated in T25 flasks, and 1 μM Purmorphamine Sellek, Cat. No.: S3042) and […] TGF-β3 (Novoprotein, Cat. No.: CJ44) were added to NouvNeu001 basal medium to culture neural stem cells. Fresh medium was replaced every 3 days until day 30. The above cultures were incubated at 37° C. with 5% CO2.
The neural stem cells obtained in example 2 were seeded at a density of 1×10^5 the ratio per flask was inoculated in T25 flasks, and 0.5 μM retinyl acetate (SIGMA ALDRICH, Cat. No.: R7782) was added to NouvNeu001 basal medium. Fresh medium was replaced every 3 days until day 21. The above cultures were incubated at 37° C. with 5% CO2.
After induction and differentiation, the cells were harvested and identified by immunofluorescence staining: cells were fixed with 4% paraformaldehyde at room temperature for 40 minutes, washed twice with DPBS buffer; then permeabilized with 0.1% Triton X-100 for 5 minutes, and buffered with DPBS The cells were then washed twice with DPBS buffer containing 10% horse serum and 0.1% Triton X-100 at 4° C. overnight; the cells were washed with DPBS buffer and then washed with 2% horse serum and 0:1% Triton X-100. […]

neural stem cells [2] = assay: Q-PCR of marker genes during induction from pluripotent stem cells to neural stem cells; assay type: cell-based, human; details: different concentrations of LY2157299
Procedure: Transcriptional changes of different marker genes during induction from pluripotent stem cells to neural stem cells were detected by using Q-PCR. The induced pluripotent stem cells used in this example are neural stem cells derived by LY inducing method and LSB inducing method, respectively. Neural stem cells were prepared as described previously using Rneasy Mini or Micro Kit (QIAGEN) for total RNA extraction, in which […] RNA was used to synthesize cDNA with superscript III First-Strand Synthesis System (Invitrogen).
SYBR Premix Ex Taq (TaKaRa) and Thermal Cycler Dice Real Time System TaKaRa) were used to perform labeling and reactions for Quantitative PCR, with beta-Actin as internal reference. All the above data were analyzed with the delta-Ct method. Each set of trials was tested using three sets of replicates, and variance statistics were performed.
(§1) From the above results, it is known that the differentiation is not complete under the low concentration condition, and many different types of cells can be seen. However, neural stem cells obtained in high concentration condition are easily differentiated and cell stress appears.

[3] = test system: Human pluripotent stem cells; assay: CyQuant quantitative detection of cell viability during induction; assay type: cell-based
Procedure: The Cyquant assay was used to perform the quantitative detection of cell viability, thus investigating the effect of LY2157299 on the physiological state of the cells during long-term culture of the cells; Among them, the LSB method was used as the control group. 96-well light-tight cell culture plates were coated; after the coating was complete, cells were seeded separately at 5×10^4 cell number per well and three sets of parallel replicates were set (the average of three sets was calculated as data) to repeat the procedure of example 2.1. Wherein, the culture procedures described previously were incubated at 37° C. with 5% CO2. Samples were taken on days 1, 5, 10, 15 and 20 for cell viability assay using CyQuant Kit (Invitrogen, cat. No: X12223). The aforementioned assay was operated according to the instructions with a Spectramax i3 Multi-Mode Microplate Reader (VWR, model number: ID3-STD) for data reading.

HLA-DR = assay: Flow cytometry detection of HLA-DR antigens of induced neural stem cells; assay type: cell-based, human
Procedure: The HLA-DR antigens of neural stem cells induced by LY2157299 were detected by flow cytometry. HLA-DR is an MHC class II molecule whose expression is critical for the antigen-presenting function of cells and plays a key role in adoptive immune responses. The induced neural stem cells obtained in Example 2 were digested with EDTA, washed with DPBS, centrifuged to remove the supernatant, and 10^6 Cells were resuspended in 100 μL of diluted primary antibody (CD45 PerCP, Abeam, Cat. No. ab157309; HLA-DR FITC, CST, Cat. No. 54126), incubated on ice for 1 hour in the dark, centrifuged to remove supernatant, and cells were resuspended in 500 μL of antibody dilution buffer (CST) and analyzed on a flow cytometer. Samples incubated without primary antibody were used as controls. The results are shown in FIG. 7, FIG. 7a is a negative control, FIG. 7b is the HLA-DR detection result of the neural stem cells obtained by LY2157299 induction.

[4] = test system: human induced pluripotent stem cells; assay: Brain organoid formation and diameter; assay type: cell-based; details: 12.5 μM LY2157299
Procedure: Organoid culture was performed with human induced pluripotent stem cells. Organoid inducing medium was formulated as follows: NouvNeu basal medium supplemented with 12.5 μM […]. Induced pluripotent stem cells were digested to single cells by Accutase, seeded in 15-bottom-ultra-low attachment 96-well plates at a ratio of 9000 cells/[…] of brain organoid inducing medium per well. 10 μM ROCK inhibitor Y-27632 (Selleck, 51049) was added, and the cells were placed in a 37° C., 5% carbon dioxide cell incubator for 24 hours (Panasonic, model: MCO-18AC). Y-27632-free fresh organoid inducing medium was changed the following day until day 10. Day 10 the organoids were transferred to ultra-low-attachment 6-well plates and the medium was changed to NouvNeu001 basal medium supplemented with 2% B27 cell culture additive. The culture was conducted at 37° C. in a 5% CO2 cell culture incubator on a horizontal rotator at 80 rpm until day 120.
The control experiment was carried out according to the published method (Clair B et. al, Nat Methods. 2019, November; 16 (11): 1169-1175). N2B27 was used as the basic medium for organ like culture. […]
Organoids were photographed by Leica Dmi8. The brain organoids were photographed and their diameters were measured. […]

[5] = test system: Human pluripotent stem cells; assay: Chemical induction of neural stem cells (neural rosette formation, cell morphology); assay type: cell-based
Source text: Human pluripotent stem cells include embryonic pluripotent stem cells, such as the H19 cell line and human induced pluripotent stem cells. Wherein, the human induced pluripotent stem cells used in the present invention are obtained from the reprogramming of CD34^+ cells, which refers to “reprogramming culture medium and reprogramming induced pluripotent stem cell culture method” (the method in the patent ZL201910050800.7).
Human pluripotent stem cells are used to coat T25 cell culture flasks with Matrigel ([…] Technologies), and then placed in a 37° C. incubator for more than one hour after plating. Follow 1×10^6 Cells were seeded in T25 flasks for expansion and passage.
For neural induction, use 50 μg/mL poly-lysine (SIGMA, Cat. No.: P6407) to coat a 6-well culture plate, and incubate at 37° C. for more than 3 hours after plating; then use 5 μg/mL Laminin (SIGMA ALDRICH, Cat. No.: 12020) for further coat, and then place in a 37° C. incubator to incubate for more than 3 hours. When pluripotent stem cells reached 70% coverage, they were digested with EDTA at 37° C. for 5 min, and DMEM was used to stop cell digestion. Cells are washed and centrifuged at 2×10^5 the proportions of each flask and are re-seeded in T25 plates. Neural induction is performed using the medium of the present invention in combination with the neural inducing compound, and the medium is changed every day until the neural stem cell rosette is formed. […] Therefore, the single-molecule inducing method provided by this method can induce pluripotent stem cells to form neural rosette structures more efficiently and uniformly.
as §1

[6] = test system: major histocompatibility complex (MHC) genes; assay: Q-PCR detection of MHC genes of induced neural stem cells; assay type: cell-based; details: compared with human pluripotent stem cells
Source text: The major histocompatibility complex (MHC) genes of neural stem cells induced by LY2157299 was detected by Q-PCR method, and pluripotent stem cells (iPS) were used as control.

[7] = Freezing point osmometer: osmolality of the culture system; assay type: physicochemical
Procedure: A fully automated freezing point osmometer (FM-8P, Shanghai Yida Instruments Co., Ltd.) was used to detect the effects of different concentrations of sodium chloride on the osmolality of the culture system, and the specific operations were enrolled in the product instructions (FM-8P, Shanghai Vida Instruments Co., Ltd.). The test results are detailed in FIG. 2a. […] However, when the concentration reached […], the osmolality of the culture system already exceeded the cell culture limit of 320 mOsm/kg.

Question: Which “nociceptor neuron differentiation of induced neural stem cells: marker expression” value (neural stem cells [1]; CHIR99021, SU5402, DAPT in NouvNeu001 until day 21) does the source give for `Cc1cccc(-c2nn3c(c2-c2ccnc4ccc(C(N)=O)cc24)CCC3)n1` [LY2157299, 4-(2-(6-methylpyridin-2-yl)-5,6-dihydro-4h-pyrrolo[1,2-b]pyrazol-3-yl) quinoline-6-carboxamide] here?
Answer: able to express the nociceptor neuronal markers SCN11A and Nestin

Question: What about the “dopaminergic neuron differentiation of induced neural stem cells: marker expression” value (neural stem cells [1]; Purmorphamine and TGF-β3 in NouvNeu001 until day 30) of the same compound?
Answer: could express the mature dopaminergic neuron specific markers Tyrosine Hydroxylase (TH) and Pitx3

Question: And the “photoreceptor neuron differentiation of induced neural stem cells: marker expression” value (neural stem cells [1]; retinyl acetate in NouvNeu001 until day 21)?
Answer: could express the photoreceptor neuronal markers OPSIN and CRX

Question: What about the “Pax6 expression versus concentration (Q-PCR)” value (neural stem cells [2]) of the same compound?
Answer: positively correlated with Pax6 expression

Question: And the “apoptosis gene CASP3 versus concentration (Q-PCR)” value (neural stem cells [2])?
Answer: positively correlated with apoptosis

Question: And the “number of neural cells induced (CyQuant)” value ([3]; samples on days 1, 5, 10, 15 and 20, LSB method as control)?
Answer: more number of neural cells compared with LSB method

Question: And the “HLA-DR antigen expression of induced neural stem cells” value (HLA-DR)?
Answer: do not express HLA-DR; also recorded: negative

Question: What about the “generation of cerebral organoids” value [4] of the same compound?
Answer: can induce the generation of cerebral organoids

Question: And the “cell population obtained by chemical induction” value (“cell population obtained” for short) ([5]; 12.5 μM LY2157299)?
Answer: a uniform cell population

Question: What about the “cell population obtained” value ([5]; 25 μM LY2157299) of the same compound?
Answer: a mixed population of neural cells was obtained

Question: What about the “cell stress on chemical induction” value ([5]; 25 μM LY2157299) of the same compound?
Answer: cells showed signs of stress with intracellular vacuoles

Question: And the “cell population obtained” value ([5]; 20 nm LY2157299)?
Answer: a mixed population of cells including neural cells was obtained

Question: What about the “expression of MHC associated genes in induced neural stem cells” value [6] of the same compound?
Answer: significantly lower than human induced pluripotent stem cells; also recorded: extremely low levels

Question: For `[Cl-].[Na+]` [sodium chloride], which “osmotic pressure of the culture system versus concentration” value ([7]; different concentrations of sodium chloride) is on record?
Answer: linear increase

Question: What about the “osmolality of the culture system” value ([7]; sodium chloride concentration 1 μg/mL) of the same compound?
Answer: > 320 mOsm/kg

Question: Which “rate of cell proliferation versus concentration (CyQuant)” value ([3]; different concentrations, long-term culture) does the source give for “recombinant insulin: component of the basal medium” here?
Answer: positively correlated with the rate of cell proliferation
